From PubChem BioAssay (NCI) come the findings set out here.

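Tested at 5 concentrations; 48 h exposure; 96-well plates; endpoints linearly interpolated, else capped at highest concentration. GI50: concentration for 50% inhibition of growth. The concentration for full growth arrest is given as TGI.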

Common to all, as to test: growth of human tumour cells (NCI), 48 h
In experiment [1] the test system is MOLT-4 leukemia.
Experiment [2] has as its system RXF 393 renal.
Experiment [3] relates to SF-539 CNS.
Experiment [4] concerns RPMI-8226 leukemia.
The subject of experiment [5] is NCI-H460 lung.
In experiment [6] the test system is SNB-19 CNS.
The test system of experiment [7] is MALME-3M melanoma.
Experiment [8] deals with NCI/ADR-RES ovarian.
For experiment [9], the system named is HS 578T breast.
Experiment [10] concerns MCF7 breast.

Take `COc1cc(/C=C2/C(=O)N(C(=O)OCC(C)C)C(Cc3cc(OC)c(OC)c(C)c3OC)C(=O)N2Cc2ccccc2)c(OC)c(C)c1OC` (centres undefined): the TGI in experiment [1], in [2], in experiment [3], in [4], in [5] and in experiment [6] was above 100 µM each time. Further, the TGI in experiment [7] is above 100 µM.

Regarding `OC(c1ccccc1)(c1ccccc1)c1ccncc1`, the TGI in [1], in experiment [2], in experiment [3], in experiment [4], in [5] and in experiment [6] was above 100 µM throughout. This compound displayed a TGI in experiment [7] above 100 µM.

On to `COc1cc2c(c(OC)c1OC)-c1ccc(SC)c(=O)cc1C(CO)C2` (centres undefined), for which the GI50 in experiment [1], in experiment [2], in experiment [3], in experiment [5], in experiment [6] and in experiment [7] was below 0.01 µM throughout. Also, the TGI in experiment [1], in experiment [4] and in experiment [6] was above 100 µM each time.

Take `O=C([CH-]C(=O)c1ccccc1)c1ccccc1.O=C([CH-]C(=O)c1ccccc1)c1ccccc1.[La+3].[OH-].[OH3+]`: the GI50 in experiment [1] is 6.24 µM; in experiment [2], 2.99 µM; in experiment [4], 11.1 µM; in [5], 8.66 µM; in experiment [6] it was 19.2 µM; in [7] it was 23 µM. Besides, the TGI in [1] is 38.6 µM; in experiment [2] it was 29.6 µM; in [4], 49.9 µM; in [5] it was above 100 µM; in experiment [6], 66.3 µM; in [7] it was 69.5 µM.

Regarding `COc1cc([N+](=O)[O-])c(OC)cc1-c1nc2sc(Cl)cn2c1/C(N)=N/C(=N)N`, the GI50 in experiment [1] was 3.09 µM; in experiment [2], 4.3 µM; in experiment [3], 4.53 µM; in experiment [4], 5.73 µM; in experiment [8], 61.4 µM; in experiment [9], 2.72 µM. Further, the GI50 was 16.1 µM in experiment [5], 3.91 µM in experiment [6] and 5.71 µM in experiment [7]. In addition, the TGI is above 100 µM in experiment [1]; 16.9 µM in experiment [2]; 50.8 µM in [3]; 20.5 µM in [4]; above 100 µM in [8]; 6.8 µM in experiment [9]. The results for the TGI in [5], in experiment [6] and in experiment [7] were 46.7 µM, above 100 µM and 26.6 µM, respectively.

On to `CCOc1ccccc1N1C(=O)C(=O)C(c2nc3ccccc3o2)C(=O)C1=O`, for which the TGI in [1], in experiment [3], in experiment [4], in experiment [6] and in experiment [7] was above 100 µM throughout.

For `CCOC(=O)N1CCN(C=S)CC1`, the TGI in experiment [1], in experiment [2], in experiment [3], in [5], in experiment [6] and in [7] was above 100 µM in each case.

As to `CCCCNc1nc(C#N)c(N)s1`, the TGI in [1], in experiment [3], in [4], in experiment [5], in experiment [6] and in [7] was above 100 µM throughout.

Take `CC(C)C1CC[C@@H](C)C[C@@]1(O)CC(N)=O` (some centres undefined): the TGI in experiment [1], in [3], in [4], in experiment [5], in [6] and in [7] was above 100 µM in each case.

In the case of `CN1C(=Nc2ccccc2)SC1=Nc1ccccc1`, the TGI is above 100 µM in experiment [1]; above 100 µM in experiment [3]; above 100 µM in experiment [4]; above 100 µM in experiment [5]; above 100 µM in [6]; 94.3 µM in experiment [7].

Turning to `CCS(CC)(CC)CC1CCCC2=CCC(P(=O)(c3ccccc3)c3ccccc3)CC21` (centres undefined), the TGI in experiment [1] stood at 25.2 µM; in [2], 23.2 µM; in experiment [3] it was 27.3 µM; in experiment [5], 24.8 µM; in [6] it was 29 µM; in [7] it was 40 µM.

In the case of `Nc1ccnc(=O)[nH]1`, the TGI in [2], in experiment [3], in experiment [4], in [5] and in experiment [7] was above 100 µM each time.

For the compound `CCOc1ccc2c(c1)[n+]([O-])c(-c1ccc(Cl)cc1)c(N)[n+]2[O-]`, the TGI in experiment [1], in [3], in experiment [4], in experiment [5], in [6] and in experiment [7] was above 100 µM each time.

With `COC(=O)/C(C)=C(/CCC1(C)OCCO1)O[Si](C)(C)C`, the TGI in [1], in experiment [2], in experiment [3], in experiment [4], in experiment [5] and in [6] was above 100 µM each time. Moreover, the TGI in experiment [7] is above 100 µM.

Regarding `c1ccc2c(c1)cc(C1NCCc3[nH]cnc31)c1ccccc12` (centres undefined), the TGI in [1] is 61.7 µM; in experiment [2], 85.6 µM; in [3] it was above 59.9 µM; in experiment [4], above 78.4 µM; in [5], above 53.6 µM; in [6] it was above 100 µM. In experiment [7], this compound returned a TGI above 100 µM.

As to `Oc1ccccc1/C=C/c1csnn1`, the TGI in [1], in [2], in experiment [3], in experiment [4], in experiment [5] and in [6] was above 100 µM throughout. The TGI in experiment [7] is above 100 µM.

Consider `CN(CCCn1c2c(c3ccccc3c1=O)C(=O)c1ccccc1-2)CCCn1c2c(c3ccccc3c1=O)C(=O)c1ccccc1-2`, for which the TGI in experiment [1] is 1.06 µM; in [3], 0.75 µM; in experiment [8], 4.32 µM; in experiment [9], above 100 µM; in experiment [5], above 100 µM; in [6], 28 µM. Moreover, the TGI in experiment [7] amounted to 28.4 µM. Moreover, the GI50 in experiment [3] was 0.181 µM; in experiment [8], 1.05 µM; in experiment [9], 2.67 µM; in [5], 0.242 µM; in experiment [6], 0.081 µM; in experiment [7], 1.08 µM.

Take `COc1ccc(/C(COc2ccc3c(=O)cc(-c4ccccc4)oc3c2)=N\O)cc1`: the GI50 in experiment [1] is above 50 µM; in experiment [2], 15.8 µM; in experiment [3], 12.8 µM; in [4] it was 22.3 µM; in [8] it was 15.4 µM; in experiment [10] it was 9.68 µM. Moreover, the GI50 was 13.3 µM in experiment [5] and 18.7 µM in [6]. In addition, the TGI in [1] is above 50 µM; in experiment [2], above 50 µM; in experiment [3], 24.3 µM; in experiment [4], above 50 µM; in experiment [8], above 50 µM; in experiment [10] it was above 32.2 µM. Further, the TGI in experiment [5] and in [6] was above 50 µM each time.

In the case of `COc1cc2c(cc1C)NC(=O)/C2=C/c1ccccn1`, the GI50 in [1] was 4.28 µM; in [3], 0.024 µM; in [4], 3.93 µM; in [8], 2.42 µM; in experiment [10] it was 3.27 µM; in experiment [5], 3.56 µM. In addition, the GI50 in [6] was 4.07 µM. For the same compound, the TGI is above 100 µM in [1]; 2.47 µM in experiment [3]; above 100 µM in experiment [4]; 6.27 µM in experiment [8]; above 100 µM in experiment [10]; above 100 µM in experiment [5]. In [6], this compound returned a TGI above 100 µM.

Regarding `Cc1cc(=O)n(-c2ccccc2C)c(C)n1`, the TGI in experiment [1], in experiment [2], in experiment [3], in experiment [5], in experiment [6] and in experiment [7] was above 100 µM in each case.

For `Cc1ccc2nc(NC(=O)C(=O)C(C#N)c3nc4ccccc4s3)sc2c1` (centres undefined), the TGI in [1] is 51.4 µM; in experiment [2], 90.9 µM; in experiment [3] it was 40.7 µM; in experiment [4], 64.8 µM; in experiment [5], above 100 µM; in experiment [6], 83.6 µM. The TGI in experiment [7] was above 100 µM.

On to `CCOC(=O)NC(=O)c1cn(CCOC(=O)CCCCCCCCC(=O)OCCn2cc(C(=O)NC(=O)OCC)c(=O)[nH]c2=O)c(=O)[nH]c1=O`, for which the TGI in experiment [1], in experiment [2], in experiment [3], in experiment [4], in [5] and in experiment [6] was above 100 µM throughout. Moreover, in experiment [7], the TGI was above 100 µM.

Regarding `Cc1ccc(S(=O)(=O)OC2CSS(=O)CC2OS(=O)(=O)c2ccc(C)cc2)cc1` (centres undefined), the TGI in experiment [1] worked out at 9.03 µM; in [2], 20.8 µM; in experiment [3], 29.2 µM; in experiment [4], 27.6 µM; in experiment [5], 46.4 µM; in experiment [6], 32 µM. Besides, the TGI in experiment [7] came out at 27.8 µM.

Turning to `CCc1cc(C(=O)OC)cn1C(=N)c1ccc(Cl)cc1`, the TGI in experiment [1], in experiment [3], in [4], in experiment [5], in experiment [6] and in experiment [7] was above 100 µM each time.

Turning to `CCC[CH2][Sn]1([CH2]CCC)[O]C(=O)c2cccnc2[O]1`, the GI50 in [1] is 2.09 µM; in [2] it was 2.02 µM; in experiment [3], 1.87 µM; in [4], 1.74 µM; in experiment [5] it was 13.3 µM; in experiment [6] it was 2.65 µM. The GI50 in experiment [7] is 1.56 µM. The TGI in [1] was found to be 5.96 µM; in [2] it was 3.82 µM; in experiment [3] it was 4 µM; in experiment [4] it was 6.34 µM; in experiment [5], 26 µM; in [6], 10.6 µM. For the same compound, the TGI in experiment [7] is 4.11 µM.

As to `O=C(O)C(SC(=S)c1ccc(C(=S)SC(C(=O)O)c2ccccc2)cc1)c1ccccc1` (centres undefined), the TGI in [1], in experiment [2], in experiment [3], in experiment [4], in experiment [5] and in experiment [6] was above 100 µM throughout. This compound also displayed a TGI in experiment [7] above 100 µM.

With `CP1(=O)CCCCC1`, the TGI in experiment [1], in [2], in experiment [3], in experiment [4], in experiment [5] and in [6] was above 100 µM each time. For the same compound, the TGI in experiment [7] is above 100 µM.

With `Oc1c(C(Nc2cccc3cccnc23)c2ccccc2)ccc2cccnc12` (centres undefined), the TGI in [1] was above 100 µM; in experiment [3] it was 39 µM; in experiment [4], above 100 µM; in [5] it was above 100 µM; in [6] it was above 100 µM; in experiment [7] it was above 100 µM.

For `COC1CC(OS(=O)(=O)c2ccc([N+](=O)[O-])cc2)C(OC(=O)c2ccccc2)C(C)O1` (centres undefined), the TGI in experiment [1], in experiment [2], in experiment [3], in experiment [4], in [5] and in [6] was above 100 µM in each case. Moreover, the TGI in experiment [7] was above 100 µM.

Consider `COc1ccc2n[se]nc2c1`, for which the TGI in [1] is above 100 µM; in [2], above 100 µM; in experiment [3], 54.3 µM; in experiment [4] it was above 100 µM; in experiment [6] it was above 100 µM; in [7], above 100 µM.

Consider `COc1ccc(Br)c(N/N=C2\CCCNC2=O)c1`, for which the TGI in experiment [1], in experiment [3], in experiment [4], in experiment [5], in [6] and in [7] was above 100 µM throughout.
